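Exposure lasted 48 hours, with cells grown in 96-well plates and compounds tested at five concentrations. The concentration for full growth arrest is given as TGI.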
Tests used:
Test in all cases: NCI tumour cell line growth inhibition, 48 h
K-562 leukemia = tested on: K-562 leukemia
SNB-19 CNS = tested on: SNB-19 CNS
BT-549 breast = tested on: BT-549 breast
OVCAR-3 ovarian = tested on: OVCAR-3 ovarian
PC-3 prostate = tested on: PC-3 prostate
NCI-H226 lung = tested on: NCI-H226 lung
OVCAR-8 ovarian = tested on: OVCAR-8 ovarian
RXF 393 renal = tested on: RXF 393 renal
HCC-2998 colon = tested on: HCC-2998 colon
SK-MEL-28 melanoma = tested on: SK-MEL-28 melanoma

| SMILES | TGI (K-562 leukemia) | TGI (SNB-19 CNS) | TGI (BT-549 breast) | TGI (OVCAR-3 ovarian) | TGI (PC-3 prostate) | TGI (NCI-H226 lung) | TGI (OVCAR-8 ovarian) | TGI (RXF 393 renal) | TGI (HCC-2998 colon) | TGI (SK-MEL-28 melanoma) |
| --- | --- | --- | --- | --- | --- | --- | --- | --- | --- | --- |
| COC(=O)n1c(=O)n(-c2ccccc2)c(=O)n1C(=O)OC | > 100 µM | > 100 µM | > 100 µM | > 100 µM | > 100 µM | > 100 µM | > 100 µM | > 100 µM | > 100 µM | > 100 µM |
| O=c1[nH]nc(-c2ccccc2)n1/N=C/c1c(O)ccc2ccccc12 | > 100 µM | 85.4 µM | > 100 µM | 43.2 µM | > 100 µM | – | > 100 µM | 85.2 µM | > 100 µM | > 100 µM |
| O=C1COc2ccc([N+](=O)[O-])cc2C(=O)C1 | > 10 µM | > 10 µM | > 10 µM | > 10 µM | > 10 µM | > 10 µM | > 10 µM | > 10 µM | > 10 µM | > 10 µM |
| NC(=S)Nc1[nH]c(=S)nc2c1SC1=N/C(=C\c3ccco3)C(=O)N12 | > 66.5 µM | > 100 µM | > 100 µM | > 100 µM | > 100 µM | > 100 µM | > 100 µM | > 100 µM | > 50.4 µM | > 100 µM |
| COC(=O)/C=C(/C(=O)OC)c1c(C)c(C)c2c(C)cc(C)cc(C)c1-2 | > 100 µM | > 100 µM | > 100 µM | > 100 µM | > 100 µM | 58.9 µM | > 100 µM | > 100 µM | > 100 µM | > 100 µM |
| N#Cc1c(N2CCCC2)ncn(Cc2ccccc2)c1=O | > 100 µM | > 100 µM | > 100 µM | > 100 µM | > 100 µM | > 100 µM | > 100 µM | > 100 µM | > 100 µM | > 100 µM |
| O=C1/C(=C/c2ccccc2[N+](=O)[O-])N=C(c2ccccc2)N1C1Nc2cc3c(cc2S1)NC(N1C(=O)/C(=C/c2ccccc2[N+](=O)[O-])N=C1c1ccccc1)S3 (configuration not stated) | > 100 µM | – | > 100 µM | > 100 µM | > 100 µM | > 100 µM | > 100 µM | > 100 µM | 38.1 µM | > 100 µM |
| COc1ccc(-c2c(N)n(-c3cccc(C(=O)O)c3)c(=O)c3cc([N+](=O)[O-])ccc23)cc1 | > 100 µM | > 100 µM | > 100 µM | > 100 µM | > 100 µM | > 100 µM | > 100 µM | > 100 µM | > 100 µM | > 100 µM |
| CN(C)CCNC(=O)c1cccc2nc3c(nc12)-c1ccccc1C3=O | > 100 µM | 47.6 µM | 29.7 µM | 43.2 µM | 35 µM | 39.6 µM | 62.7 µM | 34.4 µM | 38.1 µM | 37.3 µM |
| O=C1c2c(nc3ccccc3c2-c2ccccc2)CN1Nc1ccccn1 | > 100 µM | > 100 µM | > 100 µM | > 100 µM | > 100 µM | > 89 µM | > 87.1 µM | > 100 µM | > 100 µM | > 100 µM |
| Cc1cc(-c2nc3ccccc3s2)ccc1NC(=O)[C@H](C)N | 23.2 µM | 28.7 µM | 31.2 µM | 24.7 µM | 26.7 µM | 13.4 µM | 37.4 µM | 25.4 µM | 23.9 µM | 29.3 µM |
| COC(=O)c1cc(C#N)[nH]c1-c1ccc(C)s1 | > 100 µM | > 100 µM | > 100 µM | > 100 µM | 46.4 µM | > 100 µM | > 100 µM | 46.7 µM | > 100 µM | > 100 µM |
| CCOC(=O)/C=C(/C(=O)OCC)n1cc(C)c(=O)n(Cc2cn(COCCOC(C)=O)nn2)c1=O | 63.2 µM | > 92.5 µM | 37.9 µM | 56.1 µM | > 100 µM | > 54 µM | 32.7 µM | > 70 µM | 37.6 µM | 57.1 µM |
| O=C1C=C(Br)c2c(Br)sc(Br)c21 | > 36.7 µM | 35.7 µM | 17 µM | 31.4 µM | 26.4 µM | 98.8 µM | 12.1 µM | 25.7 µM | 28.1 µM | > 56.2 µM |
| COc1cc(/C=C2\N=C(c3ccccc3)N(c3nc4c(OC)ccc(OC)c4s3)C2=O)cc(OC)c1OC | > 100 µM | > 100 µM | > 100 µM | > 100 µM | > 100 µM | – | > 100 µM | > 100 µM | > 100 µM | > 100 µM |
| CCc1ccc2[nH]c(O)c(-c3[nH]c4ccccc4c3N=O)c2c1 | 97.1 µM | 31.6 µM | 20.6 µM | 14.4 µM | 19.8 µM | 62.5 µM | 32.2 µM | 11.2 µM | 8.52 µM | 26.7 µM |

— PubChem BioAssay (NCI)
